The values that follow come from ChEMBL document CHEMBL1135902, “Molecular interaction of the antagonist N-(piperidin-1-yl)-5-(4-chlorophenyl)-1- (2,4-dichlorophenyl)-4-methyl-1H-pyrazole-3-carboxamide with the CB1 cannabinoid receptor” (J Med Chem, 2002).

The target of the test is Cannabinoid receptor 1 (Rattus norvegicus, UniProt P20272). It is filed as cell membranes, Brain, Brain membranes.
Chain of Cannabinoid receptor 1 (P20272 whole entry): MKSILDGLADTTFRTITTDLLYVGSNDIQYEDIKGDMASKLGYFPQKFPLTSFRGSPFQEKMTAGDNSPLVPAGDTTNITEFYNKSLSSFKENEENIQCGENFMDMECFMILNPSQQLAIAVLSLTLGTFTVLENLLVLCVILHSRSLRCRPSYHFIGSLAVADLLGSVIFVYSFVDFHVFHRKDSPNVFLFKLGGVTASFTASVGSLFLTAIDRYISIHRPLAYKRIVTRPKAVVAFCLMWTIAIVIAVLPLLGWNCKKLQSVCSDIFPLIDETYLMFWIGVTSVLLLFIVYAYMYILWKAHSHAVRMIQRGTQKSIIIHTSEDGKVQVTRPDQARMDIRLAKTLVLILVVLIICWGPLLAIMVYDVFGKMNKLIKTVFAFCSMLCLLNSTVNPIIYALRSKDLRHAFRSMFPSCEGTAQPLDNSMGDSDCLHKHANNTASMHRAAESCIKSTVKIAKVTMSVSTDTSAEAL
Description: Inhibition of [3H]CP-55940 binding to cannabinoid receptor 1 in rat brain membranes.
The molecule `CCCCCc1ccc(-n2nc(C(=O)NN3CCCCC3)c(C)c2-c2ccc(Cl)cc2)cc1` yielded a Ki of 1360 nM.
Molecule `CCC(C)c1ccc(-n2nc(C(=O)NN3CCCCC3)c(C)c2-c2ccc(Cl)cc2)cc1` (configuration not stated) returned a Ki of 37 nM.
For the molecule `Cc1c(COCCN2CCCCC2)nn(-c2ccc(Cl)cc2Cl)c1-c1ccc(Cl)cc1`, affinity was put at a Ki of 232 nM.
The molecule `Cc1c(C(=O)NN2CCCC2)nn(-c2ccc(Cl)cc2Cl)c1-c1ccc(Br)cc1` had a Ki of 17.1 nM.
The molecule `Cc1c(COCc2ccc(F)cc2)nn(-c2ccc(Cl)cc2Cl)c1-c1ccc(Cl)cc1` displayed a Ki of 6 nM.
For `CCCCCCCn1nc(C(=O)NN2CCCCC2)c(C)c1-c1ccccc1`, affinity was put at a Ki of 47 nM.
Take `Cc1c(C(=O)NN2CCCCC2)nn(-c2ccc(Cl)cc2)c1-c1ccc(Cl)cc1`: the affinity corresponds to a Ki of 55 nM.
On to `Cc1c(C(=O)NN2CCOCC2)nn(-c2ccc(Cl)cc2Cl)c1-c1ccc(Br)cc1`, for which the Ki stood at 19 nM.
The result for `Cc1c(C(=O)NC2CCCCC2)nn(-c2ccc(Cl)cc2Cl)c1-c1ccc(Br)cc1` reads 15 nM; that for `CCCCCCn1nc(C(=O)NN2CCCCC2)c(C)c1-c1ccccc1`, 21 nM; that for `O=C(NN1CCCCC1)c1nn(-c2ccc(Cl)cc2Cl)c2c(Cl)cccc12`, 746 nM.
As for `CCCCc1ccc(-n2nc(C(=O)NN3CCCCC3)c(C)c2-c2ccc(Cl)cc2)cc1`, affinity was put at a Ki of 256 nM.
In turn, `O=C(NN1CCCCC1)c1nn(-c2ccc(Cl)cc2Cl)c2c([N+](=O)[O-])cccc12` registered a Ki of 202 nM.
Molecule `CCCCCCCNC(=O)c1nn(-c2ccc(Cl)cc2Cl)c(-c2ccc(Cl)cc2)c1C` registered an inhibition constant Ki of 3 nM.
On to `Cc1c(C(=O)NN2CCCCC2)nn(-c2ccc([N+](=O)[O-])cc2)c1-c1ccc(Cl)cc1`, for which the inhibition constant Ki worked out at 109 nM.
The molecule `Cc1c(C(=O)NN2CCCCC2)nn(-c2ccc(N)cc2)c1-c1ccc(Cl)cc1` yielded a Ki of 72 nM.
`Cc1c(C(=O)N(C)C2CCCCC2)nn(-c2ccc(Cl)cc2Cl)c1-c1ccc(Br)cc1` gave a Ki of 56 nM.
`Cc1c(C(=O)NN2CCCCC2)nn(C2CCCCC2)c1-c1ccccc1` displayed a Ki of 391 nM.
In turn, `CCCCCn1nc(C(=O)NN2CCCCC2)c(C)c1-c1ccccc1` came in with a Ki of 23 nM.
`Cc1c(C(=O)NCCO)nn(-c2ccc(Cl)cc2Cl)c1-c1ccc(Br)cc1` had an inhibition constant Ki of 165 nM.
`Cc1c(COCC2CCCCC2)nn(-c2ccc(Cl)cc2Cl)c1-c1ccc(Cl)cc1` registered a Ki of 100 nM.
In turn, `CCCCCn1nc(C(=O)NN2CCCCC2)c(C)c1-c1ccc(Br)cc1` returned an inhibition constant Ki of 63 nM.
In turn, `CCCCCC(=O)c1nn(-c2ccc(Cl)cc2Cl)c(-c2ccc(Cl)cc2)c1C` gave a Ki of 25 nM.
With `CCCCCNC(=O)c1nn(-c2ccc(Cl)cc2Cl)c(-c2ccc(Cl)cc2)c1C`, the affinity, expressed as Ki, was 3 nM.
`CCCCn1nc(C(=O)NN2CCCCC2)c(C)c1-c1ccccc1`: the affinity, expressed as Ki, was 187 nM.
Regarding `CCCCCc1ccc(-c2c(C)c(C(=O)NN3CCCCC3)nn2-c2ccc(Cl)cc2Cl)cc1`, affinity was put at a Ki of 1 nM.
For `CC(=O)c1ccc(-c2c(C#N)c(C(=O)Nc3ccccc3)nn2-c2ccccc2Cl)cc1`, the Ki was 7 nM.

The Ki is a measure of affinity in units of concentration, obtained from inhibition or displacement. Low readings indicate tighter binding, high ones weaker binding.
